Data on one compound can be found in patent US11773086B2, “Fungal modulators” (TRUSTEES OF BOSTON UNIVERSITY, priority 2020, dated 2023).

SMILES strings stand for the structures.

A short description of data set [1]: Single dose plasma pharmacokinetic profile. The format is in vivo, mice. As to conditions: mouse.
Data set [2] concerns FLC-resistant Candida auris. Put plainly: Checkerboard (dose-response matrix) with fluconazole, FICI. The format is cell-based. How it is done:
Generally, the synergy is measured by determining the fractional inhibitory concentration (FIC) value of the combination. […] FIC values for both agents in a particular square/well are calculated in this way followed by determination of the FIC index (sum of the FICs of each agent in the particular square/well).
Compound potency was assessed alone by dose response assays or in combination with another compound by dose-response matrixes in 96-well plates, or 384-well, flat-bottom, microtiter plates (Corning) as previously described. Plates were incubated at 30° C. for the indicated time period. Growth was quantified by measuring OD600 and corrected for medium background. All strains were assessed in biological duplicate experiments with technical duplicates. Growth was normalized to untreated controls and plotted as a heat map using Java TreeView 1.1.6r4. For dose-response matrixes fractional inhibitory concentration index at 90% growth inhibition (FICI90) was calculated as previously described. The fluconazole Etest susceptibility assay was performed as previously described. Briefly, 200 μL of 5×10^6 cells/mL were plated on YPD agar (1%) plates with either with 50 μM azoffluxin or containing DMSO.

Data set [3] deals with C. albicans CaCi-17 efflux. Put plainly: Nile red accumulation (flow cytometry) in CaCi-17. It counts as cell-based, Candida albicans. As to conditions: CaCi-17 and its cdr1Δ/cdr1Δ mutant. Here is the method:
FIG. 9A depicts checkerboard assays as described in FIG. 2B and performed with isolates of C. albicans. CaCi-2 and CaCi-17 represent early and late clinical isolates in which FLC resistance evolved over time. Growth was measured at 24 hours using OD600 and normalized to a no drug control well (see color bar). FIG. 9B depicts dose response assays conducted in YPD medium with a C. albicans parental strain, and strains with gain of function mutations in TAC1 as indicated. FLC was tittered in a two-fold dilution on the x-axis in the absence and presence of 50 μM azoffluxin. Growth was measured at 24 hours using OD600 and normalized to a no drug control well (see color bar). […] FIGS. 9D and 9E depict the intracellular concentrations of FLC and azoffluxin measured after treatment (combo treatment at 6.25 μM azoffluxin and 8 μg/mL FLC) for 1 hour by LC-MS. […] Significance was determined by an unpaired student t-test of each combination to the respective compound alone treatment, (*) indicates a p-value<0.05 and (**) indicates a p-value<0.01.
Cellular efflux was determined by measuring Nile red accumulation, as previously described. […] To quantify fluorescence, a CytoFlex Flow Cytometer (Beckman Coulter) was used. […] Each sample was run using the CytExpert Software until ˜20,000 events had been recorded. […]

In data set [4] the test system is Saccharomyces cerevisiae (BY4741). The data set is described as follows: Azoffluxin dose-response with background fluconazole. It counts as cell-based. As to conditions: fluconazole-sensitive laboratory strain BY4741, background FLC 0.5 μg/mL. Here is the method: FIGS. 2A-2E illustrate the above-described screening of the BU-CMD which identified azoffluxin as a fluconazole (FLC) potentiator against C. auris. […] Growth, as determined by optical density at 600 nm (OD600), is plotted in the presence of each CMD compound alone on the y-axis and in combination with FLC on the x-axis. Dotted lines represent 7-median absolute deviations from the median for each condition. […] FIG. 2B depicts the synergistic interactions. […] Growth was measured by the OD600 and normalized to the no drug control (see color bar). The fractional inhibitory concentration index (FICI) was calculated to determine the chemical interaction, with a value below 0.5 indicating synergy. […] FIG. 2D depicts FLC Etest strips in the presence and absence of 50 μM azoffluxin. […]
Compound potency was assessed alone by dose response assays or in combination with another compound by dose-response matrixes in 96-well plates, or 384-well, flat-bottom, microtiter plates (Corning) as previously described. […] Growth was quantified by measuring OD600 and corrected for medium background. All strains were assessed in biological duplicate experiments with technical duplicates. […] For dose-response matrixes fractional inhibitory concentration index at 90% growth inhibition (FICI90) was calculated as previously described. […]

With `C=C(C)C[C@@H](O)COc1cc2c(cc1C1(c3cc4c(cc3OC[C@H](O)CC(=C)C)OCO4)C(=O)Nc3cc(F)ccc31)OCO2` [CMLD012336], the half-life in data set [1] was 2.6 h. Further, the interaction with fluconazole result in data set [2] (Clade III isolate B12037 lacking Erg11 V125A/F126L and Mrr1 N647T) is given as “potent synergistic interaction”. Also, in data set [2] (combination with fluconazole, C. auris Ci6684 (Erg11 Y132F), <0.5 = synergy), the “fractional inhibitory concentration index (FICI)” value is 0.25. In addition, in data set [2] (fractional inhibitory concentration index for enhancement of FLC activity in FLC-resistant Candida auris, <0.5 strong synergy, 2 = no synergy), the FICI was determined as 0.130. For the same compound, the “potentiation of fluconazole across C. auris clades” value in data set [2] (isolates of the four major clades, Clade III the exception) is recorded as “potentiated fluconazole in multiple isolates from three of the four major clades”. Also, the Nile red accumulation entry in data set [3] was “increase in Nile red accumulation”. The “enhancement of fluconazole activity” value in data set [4] was “did not enhance the activity of fluconazole”.
